The values below come from ChEMBL document CHEMBL5108048, “Potent GCN2 Inhibitor Capable of Reversing MDSC-Driven T Cell Suppression Demonstrates In Vivo Efficacy as a Single Agent and in Combination with Anti-Angiogenesis Therapy” (J Med Chem, 2022).

Series [1] concerns the target T1, eIF-2-alpha kinase GCN2 (Homo sapiens, UniProt Q9P2K8). As to the kind of experiment: Inhibition of GCN2 (unknown origin).
The target of series [2] is T1, eIF-2-alpha kinase GCN2. As to the kind of experiment: Inhibition of GCN2 in human SK-OV-3 cells assessed as reduction in phosphorylation of eIF2alpha by cellular assay. The class given is cell-based.
A short description of series [3]: AUC (0-infinity) in Sprague-Dawley rat at 2 mg/kg,po. It is filed as ADME, organism-based. Also noted: time infinity, dose 2 mg/kg, route po. Conditions: in vivo.
Series [4] can be described thus: […] in Sprague-Dawley rat […] assessed as half life at 0.5 mg/kg,iv. The class given is ADME, organism-based.
A short description of series [5]: Oral bioavailability in Sprague-Dawley rat at 2 mg/kg. It is filed as ADME, organism-based. Conditions: in vivo.

T1 sequence (Q9P2K8 whole entry): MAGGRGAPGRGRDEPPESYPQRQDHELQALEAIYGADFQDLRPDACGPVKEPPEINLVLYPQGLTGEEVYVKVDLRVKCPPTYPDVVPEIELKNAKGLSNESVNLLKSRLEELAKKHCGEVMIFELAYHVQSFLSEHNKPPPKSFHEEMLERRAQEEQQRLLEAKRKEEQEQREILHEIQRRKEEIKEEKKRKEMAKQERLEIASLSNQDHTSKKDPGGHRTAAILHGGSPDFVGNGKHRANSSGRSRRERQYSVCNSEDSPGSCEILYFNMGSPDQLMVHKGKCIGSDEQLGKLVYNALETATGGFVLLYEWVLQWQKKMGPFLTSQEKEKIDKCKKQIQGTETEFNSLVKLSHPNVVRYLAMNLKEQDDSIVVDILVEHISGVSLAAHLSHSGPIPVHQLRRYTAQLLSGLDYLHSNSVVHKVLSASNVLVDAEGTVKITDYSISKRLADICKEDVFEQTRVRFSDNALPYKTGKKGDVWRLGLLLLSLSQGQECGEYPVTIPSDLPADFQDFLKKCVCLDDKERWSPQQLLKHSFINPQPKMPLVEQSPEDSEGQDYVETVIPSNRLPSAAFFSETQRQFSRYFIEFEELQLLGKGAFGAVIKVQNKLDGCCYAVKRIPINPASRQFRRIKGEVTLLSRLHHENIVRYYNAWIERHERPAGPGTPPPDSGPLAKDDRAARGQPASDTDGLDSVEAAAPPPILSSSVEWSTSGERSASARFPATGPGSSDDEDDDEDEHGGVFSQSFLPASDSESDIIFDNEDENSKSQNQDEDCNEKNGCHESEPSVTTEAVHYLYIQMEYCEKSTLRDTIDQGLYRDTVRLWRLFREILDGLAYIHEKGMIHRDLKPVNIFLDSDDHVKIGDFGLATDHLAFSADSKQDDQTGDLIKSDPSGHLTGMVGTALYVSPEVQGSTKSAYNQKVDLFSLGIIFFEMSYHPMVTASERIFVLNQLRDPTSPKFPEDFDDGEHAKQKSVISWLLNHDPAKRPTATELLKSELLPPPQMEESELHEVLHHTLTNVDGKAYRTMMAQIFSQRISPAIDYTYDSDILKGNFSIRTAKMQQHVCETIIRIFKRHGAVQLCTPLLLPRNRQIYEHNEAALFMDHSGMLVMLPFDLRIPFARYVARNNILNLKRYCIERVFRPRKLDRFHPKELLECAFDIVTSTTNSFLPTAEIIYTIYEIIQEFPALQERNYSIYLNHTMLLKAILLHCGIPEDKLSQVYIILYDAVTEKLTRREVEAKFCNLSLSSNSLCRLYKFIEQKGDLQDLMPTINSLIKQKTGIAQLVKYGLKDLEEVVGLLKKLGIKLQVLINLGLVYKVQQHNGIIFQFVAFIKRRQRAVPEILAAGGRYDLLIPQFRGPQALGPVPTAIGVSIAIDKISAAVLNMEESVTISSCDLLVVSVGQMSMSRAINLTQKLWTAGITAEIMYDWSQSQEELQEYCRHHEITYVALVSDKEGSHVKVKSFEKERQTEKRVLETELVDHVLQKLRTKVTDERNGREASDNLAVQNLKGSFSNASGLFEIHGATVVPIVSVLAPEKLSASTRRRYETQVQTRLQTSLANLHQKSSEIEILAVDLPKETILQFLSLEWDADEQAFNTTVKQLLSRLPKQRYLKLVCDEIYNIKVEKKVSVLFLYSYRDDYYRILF

On to `Cc1nn(-c2ccc3ncccc3c2)c2nc(Nc3cnn(C4CCNCC4)c3)ncc12`, for which half-maximal inhibition on eIF-2-alpha kinase GCN2 [1] (IC50) was put at 11 nM. As for `COCCNC(=O)[C@H]1CC[C@@H](Nc2ncc3c(Br)nn(-c4ccc5ncccc5c4)c3n2)CC1`, the IC50 (in general, the concentration that gives 50% inhibition) against eIF-2-alpha kinase GCN2 [1] came to 211 nM; at eIF-2-alpha kinase GCN2 [2] it was 763 nM. `CNC(=O)[C@]1(C)CC[C@@H](Nc2ncc3c(Br)nn(-c4ccc(-c5nnc(C)s5)c(CCN(C)C)c4)c3n2)C1` returned an IC50 against eIF-2-alpha kinase GCN2 [1] of 29 nM. Consider `COCCS(=O)(=O)N[C@@H]1CC[C@@H](Nc2ncc3c(Br)nn(-c4ccc5ncccc5c4)c3n2)C1` (relative stereo), for which the IC50 against eIF-2-alpha kinase GCN2 [1] stood at 55 nM; on eIF-2-alpha kinase GCN2 [2] it was 262 nM. `Clc1nn(-c2ccc3ncccc3c2)c2nc(Nc3cnn(C4CCNCC4)c3)ncc12`: 5 nM corresponded to half-maximal inhibition on eIF-2-alpha kinase GCN2 [1] (IC50). With `CNC(=O)[C@]1(C)CC[C@@H](Nc2ncc3c(Br)nn(-c4ccc(-c5nnc(C)s5)c(CCN)c4)c3n2)C1`, the IC50 against eIF-2-alpha kinase GCN2 [1] was 15 nM; at eIF-2-alpha kinase GCN2 [2], 240 nM. `COCc1noc([C@@H]2CC[C@@H](Nc3ncc4c(Br)nn(-c5ccc6ncccc6c5)c4n3)C2)n1`: half-maximal inhibition against eIF-2-alpha kinase GCN2 [1] (IC50) required 106 nM.

On to `CNC(=O)[C@]1(C)CC[C@@H](Nc2ncc3c(Br)nn(-c4ccc(-c5nnc(C)s5)c(CCS(C)(=O)=O)c4)c3n2)C1`, for which the area under the curve AUC(0-inf) (usually total exposure, with the tail of the curve extrapolated) in series [3] came to 26 ng·h/mL. The 50% inhibitory concentration (IC50) at eIF-2-alpha kinase GCN2 [1] came to 2 nM; at eIF-2-alpha kinase GCN2 [2] it was 9 nM. Also, the half-life (commonly the time needed for the level to fall by half in the phase considered) in series [4] worked out at 39 min. For the same compound, the bioavailability (in general, dose-corrected exposure relative to a reference, in per cent) in series [5] worked out at 3%. On to `CNC(=O)[C@]1(C)CC[C@@H](Nc2ncc3c(Br)nn(-c4ccc5ncccc5c4)c3n2)C1`, for which the IC50 on eIF-2-alpha kinase GCN2 [1] was 17 nM; at eIF-2-alpha kinase GCN2 [2] it was 21 nM. Turning to `CCn1cc(Nc2ccn3ncc(-c4ccc(OC)cc4)c3n2)cn1`, the IC50 on eIF-2-alpha kinase GCN2 [1] was over 1000 nM. As for `CNC(=O)[C@]1(C)CC[C@@H](Nc2ncc3c(Br)nn(-c4ccc(-c5nnc(C)s5)c(CO)c4)c3n2)C1`, 91 nM corresponded to half-maximal inhibition against eIF-2-alpha kinase GCN2 [1] (IC50). Same read-out and setting: then `CNC(=O)[C@]1(C)CC[C@@H](Nc2ncc3c(Br)nn(-c4ccc(-c5nnc(C)s5)c(CC#N)c4)c3n2)C1`, with 78 nM; and `CCn1cc(Nc2ncc3c(C)nn(-c4ccc(OC)cc4)c3n2)cn1`, with 81 nM; and `CNC(=O)[C@]1(C)CC[C@@H](Nc2ncc3c(Br)nn(-c4ccc(-c5cnc(C)s5)cc4)c3n2)C1`, with 27 nM. As for `CNS(=O)(=O)[C@@H]1CC[C@@H](Nc2ncc3c(Br)nn(-c4ccc5ncccc5c4)c3n2)C1`, the results for the IC50 against eIF-2-alpha kinase GCN2 [1] and on eIF-2-alpha kinase GCN2 [2] were 43 nM and 106 nM, respectively. At eIF-2-alpha kinase GCN2 [1], `CNC(=O)[C@]1(C)CC[C@@H](Nc2ncc3c(Br)nn(-c4ccc(-c5nnc(C)s5)c(CS(C)(=O)=O)c4)c3n2)C1` showed an IC50 of 211 nM. `Brc1nn(-c2ccc3ncccc3c2)c2nc(Nc3cnn(C4CCNCC4)c3)ncc12`: the 50% inhibitory concentration (IC50) was determined as 3 nM on eIF-2-alpha kinase GCN2 [1] and 610 nM at eIF-2-alpha kinase GCN2 [2]. As to `CNC(=O)[C@@H]1CC[C@@H](Nc2ncc3c(Br)nn(-c4ccc5ncccc5c4)c3n2)C1`, the IC50 on eIF-2-alpha kinase GCN2 [1] is 21 nM; at eIF-2-alpha kinase GCN2 [2] it was 25 nM. Take `CCn1cc(Nc2ncc3cnn(-c4ccc(OC)cc4)c3n2)cn1`: it took 133 nM to reach half-maximal inhibition against eIF-2-alpha kinase GCN2 [1] (IC50).

Compound `COCCNC(=O)CNc1ncc2c(Br)nn(-c3ccc4ncccc4c3)c2n1` yielded an IC50 on eIF-2-alpha kinase GCN2 [1] of over 1000 nM. At eIF-2-alpha kinase GCN2 [1], `CNC(=O)[C@]1(C)CC[C@@H](Nc2ncc3c(Br)nn(-c4ccc(-c5nnc(C)s5)c(CNS(C)(=O)=O)c4)c3n2)C1` came in with an IC50 of 109 nM.

Regarding `CNC(=O)[C@]1(C)CC[C@@H](Nc2ncc3c(Br)nn(-c4ccc(-c5nnc(C)o5)cc4)c3n2)C1`, the IC50 on eIF-2-alpha kinase GCN2 [1] and on eIF-2-alpha kinase GCN2 [2] was 16 nM throughout. In turn, `CNC(=O)[C@]1(C)CC[C@@H](Nc2ncc3c(Br)nn(-c4ccc(-c5nnc(C)s5)c(CCC#N)c4)c3n2)C1` showed an AUC(0-inf) in series [3] of 1900 ng·h/mL. Also, the results for the IC50 on eIF-2-alpha kinase GCN2 [1] and at eIF-2-alpha kinase GCN2 [2] were 10 nM and 29 nM, respectively. Further, in series [4], the half-life was 13 min. This compound registered a bioavailability in series [5] of 42%. For the compound `COCCNC(=O)[C@H]1CC[C@H](Nc2ncc3c(Br)nn(-c4ccc5ncccc5c4)c3n2)C1`, the figures for the IC50 against eIF-2-alpha kinase GCN2 [1] and at eIF-2-alpha kinase GCN2 [2] were 144 nM and 183 nM, respectively. Take `COCCNC(=O)[C@H]1C[C@H](Nc2ncc3c(Br)nn(-c4ccc5ncccc5c4)c3n2)C1`: the IC50 against eIF-2-alpha kinase GCN2 [1] stood at 40 nM; at eIF-2-alpha kinase GCN2 [2] it was 86 nM. The compound `CNC(=O)[C@]1(C)CC[C@@H](Nc2ncc3c(Br)nn(-c4ccc(-c5nnc(C)s5)c(CCO)c4)c3n2)C1` had a total exposure AUC(0-inf) in series [3] of 518 ng·h/mL. For the same compound, the IC50 turned out to be 16 nM at eIF-2-alpha kinase GCN2 [1] and 25 nM on eIF-2-alpha kinase GCN2 [2]. Further, the half-life in series [4] stood at 47 min. In series [5], the bioavailability came to 15%. On to `FC(F)(F)c1nn(-c2ccc3ncccc3c2)c2nc(Nc3cnn(C4CCNCC4)c3)ncc12`, for which the concentration for half-maximal inhibition (IC50) on eIF-2-alpha kinase GCN2 [1] turned out to be 168 nM. Consider `CNC(=O)[C@]1(C)CC[C@@H](Nc2ncc3c(Br)nn(-c4ccc(-c5nnc(C)s5)cc4F)c3n2)C1`, for which half-maximal inhibition against eIF-2-alpha kinase GCN2 [1] (IC50) required 359 nM. `Brc1nn(-c2ccc3ncccc3c2)c2nc(N[C@@H]3CC[C@@H](c4ncc[nH]4)C3)ncc12` (relative stereo): the IC50 against eIF-2-alpha kinase GCN2 [1] worked out at 21 nM; on eIF-2-alpha kinase GCN2 [2] it was 545 nM. Take `CS(=O)(=O)N1CC[C@@H](Nc2ncc3c(Br)nn(-c4ccc5ncccc5c4)c3n2)C1`: the IC50 at eIF-2-alpha kinase GCN2 [1] amounted to 90 nM; at eIF-2-alpha kinase GCN2 [2], 378 nM. `CCn1cc(Nc2ncc3c(C)nn(-c4ccc5ncccc5c4)c3n2)cn1` gave a half-inhibitory concentration (IC50) against eIF-2-alpha kinase GCN2 [1] of 23 nM. Turning to `COCCNC(=O)[C@H]1CC[C@H](Nc2ncc3c(Br)nn(-c4ccc5ncccc5c4)c3n2)CC1`, the results for the IC50 against eIF-2-alpha kinase GCN2 [1] and at eIF-2-alpha kinase GCN2 [2] were 159 nM and 628 nM, respectively. The compound `COCCNC(=O)[C@@H]1CC[C@H](Nc2ncc3c(Br)nn(-c4ccc5ncccc5c4)c3n2)C1` displayed an IC50 at eIF-2-alpha kinase GCN2 [1] of 923 nM. Consider `CNC(=O)[C@]1(C)CC[C@@H](Nc2ncc3c(Br)nn(-c4ccc(-c5nnc(C)s5)c(S(C)(=O)=O)c4)c3n2)C1`, for which inhibition against eIF-2-alpha kinase GCN2 [1] was half-maximal at 61 nM (IC50). The same measure, in the same setting: then `CNC(=O)[C@]1(C)CC[C@@H](Nc2ncc3c(Br)nn(-c4ccc(-c5ncc(C)s5)cc4)c3n2)C1`, with 76 nM; and `COCCNC(=O)CCNc1ncc2c(Br)nn(-c3ccc4ncccc4c3)c2n1`, with over 1000 nM. `CNC(=O)[C@]1(C)CC[C@@H](Nc2ncc3c(Br)nn(-c4ccc(-c5nnc(C)s5)c(C#N)c4)c3n2)C1` returned an AUC(0-inf) in series [3] of 1150 ng·h/mL. Further, the half-maximal inhibitory concentration (IC50) came to 8 nM against eIF-2-alpha kinase GCN2 [1] and 35 nM on eIF-2-alpha kinase GCN2 [2]. In addition, the half-life in series [4] worked out at 51 min. The same compound returned a bioavailability in series [5] of 39%. As to `CCn1cc(Nc2ncc3ccn(-c4ccc(OC)cc4)c3n2)cn1`, on eIF-2-alpha kinase GCN2 [1], the concentration for half-maximal inhibition (IC50) stood at 405 nM. `COCCNC(=O)[C@H]1CC[C@@H](Nc2ncc3c(Br)nn(-c4ccc5ncccc5c4)c3n2)C1`: the IC50 was 61 nM against eIF-2-alpha kinase GCN2 [1] and 156 nM on eIF-2-alpha kinase GCN2 [2]. For `CNC(=O)[C@]1(C)CC[C@@H](Nc2ncc3c(Br)nn(-c4ccc(-c5nnc(C)s5)c(F)c4)c3n2)C1`, the IC50 against eIF-2-alpha kinase GCN2 [1] came to 8 nM; at eIF-2-alpha kinase GCN2 [2] it was 33 nM. On to `COCCC(=O)N[C@@H]1CC[C@@H](Nc2ncc3c(Br)nn(-c4ccc5ncccc5c4)c3n2)C1`, for which the figures for the IC50 against eIF-2-alpha kinase GCN2 [1] and at eIF-2-alpha kinase GCN2 [2] were 74 nM and 159 nM, respectively.

`COCCNC(=O)[C@@H]1CC[C@@H](Nc2ncc3c(Br)nn(-c4ccc5ncccc5c4)c3n2)C1`: the IC50 against eIF-2-alpha kinase GCN2 [1] was 5 nM; at eIF-2-alpha kinase GCN2 [2] it was 20 nM.

For `CCn1cc(Nc2ncc3cccc(-c4ccc(OC)cc4)c3n2)cn1`, on eIF-2-alpha kinase GCN2 [1], the 50% inhibitory concentration (IC50) is over 1000 nM.

`CCn1cc(Nc2ncc3cccc(Nc4ccc(OC)cc4)c3n2)cn1` registered an IC50 against eIF-2-alpha kinase GCN2 [1] of over 1000 nM.

At eIF-2-alpha kinase GCN2 [1], `CCn1cc(Nc2ncc3c(C)nn(-c4ccc(C#N)cc4)c3n2)cn1` registered an IC50 of 56 nM.
